ChEMBL document CHEMBL1201862, “PubChem BioAssay data set” (2004)
Calls of active or inactive are those of the source.

Tests used:
[1] = target: DNA dC->dU-editing enzyme APOBEC-3A (Homo sapiens, UniProt P31941); test: A3A deaminase inhibition for selectivity – biochemical, dose response (AID 504722); format: functional
[2] = target: DNA dC->dU-editing enzyme APOBEC-3G (Homo sapiens, UniProt Q9HC16); test: Dose Response confirmation of small molecule APOBEC3G DNA Deaminase Inhibitors via a fluorescence-based single-stranded DNA deaminase assay. [Related pubchem assays (depositor defined):AID493012, AID493028]; format: functional
[3] = target: Beta-adrenergic receptor kinase 1 (Homo sapiens, UniProt P25098); test: aptamer displacement from bead-bound GRK2 – biochemical, cherry pick 1, bead flow cytometry, dose response (AID 504500)
[4] = target: T1, Carboxy-terminal domain RNA polymerase II polypeptide A small phosphatase 1 (Homo sapiens, UniProt Q9GZU7); test: CTDSP1 inhibitors, concentration-response, biochemical, absorbance readout, ultra-high-throughput screen actives (AID 540297); format: functional
T1 sequence (Q9GZU7 whole entry): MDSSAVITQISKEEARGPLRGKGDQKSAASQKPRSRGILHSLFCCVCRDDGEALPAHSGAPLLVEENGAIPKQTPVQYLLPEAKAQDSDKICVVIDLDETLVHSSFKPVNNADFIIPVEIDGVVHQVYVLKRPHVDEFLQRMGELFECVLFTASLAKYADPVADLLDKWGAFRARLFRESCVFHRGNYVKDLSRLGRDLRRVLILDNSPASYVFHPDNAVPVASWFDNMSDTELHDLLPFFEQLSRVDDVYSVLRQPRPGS

[5] = target: T2, Small ubiquitin-related modifier 1 (Homo sapiens, UniProt P63165); test: SUMO1 protein interaction blockers, potency – biochemical, fluorescence polarization, uHTS hits, dose response (AID 624382); format: functional; conditions: read-out: IC50_Mean
[6] = target: T2, Small ubiquitin-related modifier 1; test: SUMO1 protein-protein binding blockers, potency – biochemical, FRET, dose response (AID 624383); format: functional; conditions: read-out: IC50_Mean
[7] = viability loss in THP-1 monocytes – THP-1 cells, cytotoxicity control for Vif-APOBEC3G degradation inhibitor project, dose response (AID 1117359); format: functional; conditions: THP-1
[8] = NIH-3T3 fibroblast cytotoxicity, dose response, cytotoxicity control, cell-based, fluorescence, Alamar Blue, secondary assay (AID 2327); format: functional;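 further: NIH-3T3 mouse fibroblasts cultured with fluconazole at 8 µg/mL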
[9] = luciferase reporter signal suppression in cells – H4 neuroglioma cells, luminescence, dose response (AID 1990); format: functional, cell-based
BJ [10] = test: BJ-TERT fibroblast viability loss – cell-based, RAS-independent, luminescence, dose response (AID 1933); format: functional; conditions: Homo sapiens
[11] = Luminescence Cell-Based Dose Response HTS to Identify Inhibitors of 5'UTR Stem-Loop Driven Prion Protein mRNA Translation in H4 Neuroglioblastoma Cells. [Related pubchem assays: 1827 (Project Summary), 1813 (Primary HTS)]; format: functional
[12] = target: T3, Heat shock factor protein 1 (Mus musculus, UniProt P38532); test: decrease of HSF1-responsive luciferase luminescence – cell-based, NIH3T3, dose retest, confirmation (AID 2382); format: functional;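 further: NIH3T3 fibroblasts with HSF1-driven luciferase reporter stressed by proteasome inhibitor MG132; luminescence from HSF1-driven luciferase expression after 8 hours of MG132 stress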
T3 sequence (P38532 whole entry): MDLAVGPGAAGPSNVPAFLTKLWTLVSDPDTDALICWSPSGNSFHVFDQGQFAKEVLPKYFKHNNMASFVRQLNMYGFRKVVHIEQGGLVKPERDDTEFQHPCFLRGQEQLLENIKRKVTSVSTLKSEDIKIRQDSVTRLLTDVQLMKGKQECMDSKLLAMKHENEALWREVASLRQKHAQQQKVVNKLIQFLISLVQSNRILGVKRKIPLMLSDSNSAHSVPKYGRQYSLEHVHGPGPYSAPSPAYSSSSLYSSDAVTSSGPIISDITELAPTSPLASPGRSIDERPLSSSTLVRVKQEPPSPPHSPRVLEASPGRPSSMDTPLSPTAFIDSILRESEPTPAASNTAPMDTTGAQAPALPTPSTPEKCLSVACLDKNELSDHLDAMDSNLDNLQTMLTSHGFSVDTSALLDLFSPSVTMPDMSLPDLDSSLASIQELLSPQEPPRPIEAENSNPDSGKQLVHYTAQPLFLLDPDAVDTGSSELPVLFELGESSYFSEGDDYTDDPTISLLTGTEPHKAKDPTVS

[13] = alpha-synuclein stem-loop luciferase translation blockers – H4 neuroglioma cells, luminescence, confirmation (AID 1988); format: functional, cell-based
BJ [14] = test: cells; format: functional, cell-based; conditions: Homo sapiens
[15] = fluconazole-exposed Candida albicans growth modulators – fluorescence, retest, confirmation (AID 2467); format: functional, cell-based
[16] = Luminescence-based dose response cell-based high throughput screening assay for cytotoxic compounds using the IEC-6 intestinal epithelial cell line. [Related pubchem assays: 1858 (Summary AID.), 1825 (Counterscreen.), 1907 (Confirmation screen.)]; format: functional
BJ [17] = test: BJ-TERT-LT-ST fibroblast viability loss – cell-based, RAS-independent, luminescence, dose response (AID 1935); format: functional; conditions: Homo sapiens;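 further: BJ fibroblasts immortalized with TERT plus LT and ST oncogenes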
[18] = DRD fibroblast viability loss – cell-based, non-viral oncogenic, luminescence, dose response (AID 1934); format: functional; conditions: Homo sapiens
[19] = HEK-293T viability loss after treatment – luminescence, T-cell screen hits, cytotoxicity control for TCR NF-kB inhibitor project, dose response (AID 489026); format: functional, cell-based;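 further: cells exposed to compound about 14 hours before the viability readout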
[20] = target: Heat shock protein HSP 90-alpha (Homo sapiens, UniProt P07900); format: functional, organism-based
BJ [21] = test: growth inhibition of engineered Ras-driven BJ cells – cell-based, alamar blue fluorescence, cherrypicked samples, dose response (AID 2631); format: functional; conditions: Homo sapiens;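 further: confirmatory dose-response assay in RAS-dependent BJ fibroblasts engineered with TERT, LT and ST, with cytotoxicity read by fluorescence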
[22] = target: T4, V-type proton ATPase subunit c' (Saccharomyces cerevisiae S288c, UniProt P32842); test: Dose Response of Small Molecules that Regulate V-ATPase Proton Transport in Yeast using pHLuorin, Cherry Pick 1. [Related pubchem assays (depositor defined):AID504622]; format: functional
[23] = target: T4, V-type proton ATPase subunit c'; test: Dose Response of Small Molecules that Regulate V-ATPase Proton Transport in Yeast using pHLuorin, Cherry Pick 2.; format: functional; conditions: read-out: EC50_MICROM
Fatty acid synthase [24] = target: T5, Fatty acid synthase (Homo sapiens, UniProt P49327); test: inhibition of human FAS-TE enzyme activity – biochemical, endpoint fluorescence intensity, uHTS hits, dose response (AID 624327); format: functional;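 further: fluorescence from hydrolysis of an O-methyl fluorescein acyl ester substrate by the enzyme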
[25] = target: Mitochondrial peptide methionine sulfoxide reductase (Bos taurus, UniProt P54149); format: functional;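 further: absorbance read-out, biochemical high-throughput dose-response screen for MsrA inhibitors, confirmatory; recombinant bovine MsrA coupled to E. coli TrxB with NADPH and selenocystamine; potency is for inhibitors of MsrA activity on DMSO substrate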
Fatty acid synthase [26] = target: T5, Fatty acid synthase; test: inhibition of human FAS-TE enzyme activity – biochemical, kinetic fluorescence intensity, dose response (AID 624326); format: functional;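 further: rate of fluorescence rise from hydrolysis of a fluorogenic O-methyl fluorescein ester substrate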
[27] = blockers of HIV-1 envelope-mediated cell-cell fusion – cherry-pick, dose response (AID 652057); format: functional, cell-based
[28] = viability loss in CEM21 cells – cell-based, CellTiter-Glo luminescence, cherry-picked, cytotoxicity control for viral fusion inhibitor project, dose response (AID 652042); format: functional;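 further: potency for signal decrease meaning cytotoxicity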
[29] = blockers of HIV-1 ZM109 envelope-driven cell-cell fusion – HeLa effector, CEM target cells, luciferase, cherry-pick, dose response (AID 652058); format: functional, cell-based;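 further: luciferase signal from HIV-1 Env mediated cell-cell fusion of effector and target cells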
[30] = off-target signal loss in HeLa-CEM21 co-culture – HeLa F-luc CTL cells, cherry-picked, counter-screen for HIV-1 Env fusion inhibitor project, dose response (AID 652040); format: functional, cell-based;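 further: potency for signal decrease marking cytotoxic or nonspecific inhibition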
[31] = HIV-1 AD8 envelope cell-cell fusion blockers – cherry-pick, dose response (AID 652062); format: functional, cell-based;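 further: luciferase signal from cell-cell fusion driven by HIV-1 clade B AD8 Env; potency is for inhibitors of fusion seen as a drop in luminescence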
[32] = target: Acyl-homoserine lactone acylase PvdQ (Pseudomonas aeruginosa (strain LESB58), UniProt Q9I194); test: PvdQ acylase enzyme activity blockers – biochemical, fluorescence, plate reader and imaging, cherry-picks, dose response (AID 493231)
HeLa = test: toxicity to human HeLa cells – cell-based, 48 h, plate reader, cherry-picks, cytotoxicity control, dose response (AID 504942); format: functional
Hexokinase-1 = target: T6, Hexokinase-1 (Homo sapiens, UniProt P19367); test: SAR analysis of small molecule inhibitors of hexokinase domain containing I (HKDC1) in the hexokinase 1 selectivity assay. [Related pubchem assays (depositor defined):AID493160, AID493190]; format: functional
T6 sequence (P19367 whole entry): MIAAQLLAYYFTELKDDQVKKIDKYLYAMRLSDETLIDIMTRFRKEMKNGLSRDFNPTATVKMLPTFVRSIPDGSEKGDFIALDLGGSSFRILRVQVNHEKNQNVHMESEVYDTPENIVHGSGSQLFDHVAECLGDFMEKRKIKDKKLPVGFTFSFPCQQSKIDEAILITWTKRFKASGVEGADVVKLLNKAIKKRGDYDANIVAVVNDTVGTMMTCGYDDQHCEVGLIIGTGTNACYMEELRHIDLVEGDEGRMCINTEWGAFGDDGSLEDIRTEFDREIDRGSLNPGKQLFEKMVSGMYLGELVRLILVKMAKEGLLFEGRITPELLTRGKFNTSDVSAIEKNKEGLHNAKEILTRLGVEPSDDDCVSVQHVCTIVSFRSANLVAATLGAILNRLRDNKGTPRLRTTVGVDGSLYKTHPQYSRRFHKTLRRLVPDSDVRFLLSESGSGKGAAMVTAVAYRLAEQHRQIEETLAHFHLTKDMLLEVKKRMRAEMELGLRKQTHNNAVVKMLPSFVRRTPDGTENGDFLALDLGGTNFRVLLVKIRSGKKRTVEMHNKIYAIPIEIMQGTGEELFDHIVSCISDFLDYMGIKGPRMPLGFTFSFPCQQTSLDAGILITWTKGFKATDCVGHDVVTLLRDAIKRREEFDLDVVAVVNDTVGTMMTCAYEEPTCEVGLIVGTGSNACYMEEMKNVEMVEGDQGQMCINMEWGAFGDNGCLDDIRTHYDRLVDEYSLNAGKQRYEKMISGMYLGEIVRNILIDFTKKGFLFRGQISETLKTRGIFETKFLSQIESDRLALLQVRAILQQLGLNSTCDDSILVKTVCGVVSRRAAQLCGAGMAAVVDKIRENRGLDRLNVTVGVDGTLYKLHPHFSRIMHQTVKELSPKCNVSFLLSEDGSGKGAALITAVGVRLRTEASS

Hexokinase HKDC1 = target: T7, Hexokinase HKDC1 (Homo sapiens, UniProt Q2TB90); test: SAR analysis of small molecule inhibitors of hexokinase domain containing I (HKDC1). [Related pubchem assays (depositor defined):AID493160, AID493190]; format: functional
T7 sequence (Q2TB90 whole entry): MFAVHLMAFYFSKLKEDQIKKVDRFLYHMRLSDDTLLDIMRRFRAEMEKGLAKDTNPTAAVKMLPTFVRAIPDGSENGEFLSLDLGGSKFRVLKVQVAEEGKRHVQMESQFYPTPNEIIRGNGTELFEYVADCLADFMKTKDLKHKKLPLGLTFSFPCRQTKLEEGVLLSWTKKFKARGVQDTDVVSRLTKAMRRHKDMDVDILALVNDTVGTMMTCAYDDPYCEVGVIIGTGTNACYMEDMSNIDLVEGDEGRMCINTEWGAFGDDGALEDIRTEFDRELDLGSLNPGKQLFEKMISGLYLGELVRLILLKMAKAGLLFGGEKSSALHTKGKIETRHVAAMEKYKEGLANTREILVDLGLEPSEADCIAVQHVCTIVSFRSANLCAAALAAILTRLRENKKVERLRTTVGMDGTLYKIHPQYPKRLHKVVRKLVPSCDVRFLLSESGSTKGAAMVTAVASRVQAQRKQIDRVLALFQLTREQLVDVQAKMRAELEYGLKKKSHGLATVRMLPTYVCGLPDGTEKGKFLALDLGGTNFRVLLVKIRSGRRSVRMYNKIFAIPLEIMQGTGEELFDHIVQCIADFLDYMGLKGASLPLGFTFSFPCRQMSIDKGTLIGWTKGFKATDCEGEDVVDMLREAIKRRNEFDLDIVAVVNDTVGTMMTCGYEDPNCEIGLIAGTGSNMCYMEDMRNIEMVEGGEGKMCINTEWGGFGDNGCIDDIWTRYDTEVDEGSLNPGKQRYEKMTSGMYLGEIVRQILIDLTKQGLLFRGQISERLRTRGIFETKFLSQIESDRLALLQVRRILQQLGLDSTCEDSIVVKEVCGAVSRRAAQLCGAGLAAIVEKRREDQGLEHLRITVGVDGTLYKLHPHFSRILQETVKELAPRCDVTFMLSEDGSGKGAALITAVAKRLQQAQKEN

[33] = target: Beta-2 adrenergic receptor (Homo sapiens, UniProt P07550); test: ADRB2 activation measured by internalization – cell-based, FAP fluorogen, flow cytometry, cherry pick 1, dose response (AID 588763); format: functional
Mu-type opioid receptor = Mu-type opioid receptor (Homo sapiens, UniProt P35372); format: functional, cell-based;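 further: U2OS cells with beta-arrestin recruitment to OPRM1 by beta-gal complementation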
[34] = target: 5-hydroxytryptamine receptor 2A (Mus musculus, UniProt P35363); format: functional, cell-based;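 further: CHO-K1 cells with tagged receptor and beta-arrestin; agonist potency measured as compound-induced activation of the receptor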
DNA topoisomerase = DNA topoisomerase (Yersinia pestis, UniProt A0A2S9PM60); test: Yersinia topoisomerase I cleavage product accumulation – biochemical, cherry-pick, dose response (AID 588525)
DNA topoisomerase, sequence (A0A2S9PM60 whole entry): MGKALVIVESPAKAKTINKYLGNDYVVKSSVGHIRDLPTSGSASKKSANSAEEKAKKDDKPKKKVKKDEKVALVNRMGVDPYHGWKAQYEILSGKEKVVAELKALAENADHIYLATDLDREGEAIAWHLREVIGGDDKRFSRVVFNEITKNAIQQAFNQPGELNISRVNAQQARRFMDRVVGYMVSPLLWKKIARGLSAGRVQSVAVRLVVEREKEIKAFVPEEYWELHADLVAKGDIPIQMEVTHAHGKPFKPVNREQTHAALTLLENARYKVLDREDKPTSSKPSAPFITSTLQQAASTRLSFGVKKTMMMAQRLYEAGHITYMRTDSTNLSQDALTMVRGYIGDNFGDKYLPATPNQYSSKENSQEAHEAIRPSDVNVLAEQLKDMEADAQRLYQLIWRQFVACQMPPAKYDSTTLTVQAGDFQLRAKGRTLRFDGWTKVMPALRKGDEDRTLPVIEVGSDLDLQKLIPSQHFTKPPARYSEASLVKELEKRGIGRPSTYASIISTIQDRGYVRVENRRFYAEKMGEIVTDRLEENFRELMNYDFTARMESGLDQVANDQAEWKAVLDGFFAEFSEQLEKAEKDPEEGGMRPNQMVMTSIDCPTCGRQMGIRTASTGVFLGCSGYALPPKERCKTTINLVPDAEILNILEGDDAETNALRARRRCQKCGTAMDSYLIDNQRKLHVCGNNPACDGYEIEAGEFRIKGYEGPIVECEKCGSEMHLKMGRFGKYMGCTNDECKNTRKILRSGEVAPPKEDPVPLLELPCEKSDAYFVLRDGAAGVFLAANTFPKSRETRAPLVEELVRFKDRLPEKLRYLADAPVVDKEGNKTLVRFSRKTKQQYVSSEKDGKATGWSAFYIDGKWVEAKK

T5 sequence (P49327 whole entry): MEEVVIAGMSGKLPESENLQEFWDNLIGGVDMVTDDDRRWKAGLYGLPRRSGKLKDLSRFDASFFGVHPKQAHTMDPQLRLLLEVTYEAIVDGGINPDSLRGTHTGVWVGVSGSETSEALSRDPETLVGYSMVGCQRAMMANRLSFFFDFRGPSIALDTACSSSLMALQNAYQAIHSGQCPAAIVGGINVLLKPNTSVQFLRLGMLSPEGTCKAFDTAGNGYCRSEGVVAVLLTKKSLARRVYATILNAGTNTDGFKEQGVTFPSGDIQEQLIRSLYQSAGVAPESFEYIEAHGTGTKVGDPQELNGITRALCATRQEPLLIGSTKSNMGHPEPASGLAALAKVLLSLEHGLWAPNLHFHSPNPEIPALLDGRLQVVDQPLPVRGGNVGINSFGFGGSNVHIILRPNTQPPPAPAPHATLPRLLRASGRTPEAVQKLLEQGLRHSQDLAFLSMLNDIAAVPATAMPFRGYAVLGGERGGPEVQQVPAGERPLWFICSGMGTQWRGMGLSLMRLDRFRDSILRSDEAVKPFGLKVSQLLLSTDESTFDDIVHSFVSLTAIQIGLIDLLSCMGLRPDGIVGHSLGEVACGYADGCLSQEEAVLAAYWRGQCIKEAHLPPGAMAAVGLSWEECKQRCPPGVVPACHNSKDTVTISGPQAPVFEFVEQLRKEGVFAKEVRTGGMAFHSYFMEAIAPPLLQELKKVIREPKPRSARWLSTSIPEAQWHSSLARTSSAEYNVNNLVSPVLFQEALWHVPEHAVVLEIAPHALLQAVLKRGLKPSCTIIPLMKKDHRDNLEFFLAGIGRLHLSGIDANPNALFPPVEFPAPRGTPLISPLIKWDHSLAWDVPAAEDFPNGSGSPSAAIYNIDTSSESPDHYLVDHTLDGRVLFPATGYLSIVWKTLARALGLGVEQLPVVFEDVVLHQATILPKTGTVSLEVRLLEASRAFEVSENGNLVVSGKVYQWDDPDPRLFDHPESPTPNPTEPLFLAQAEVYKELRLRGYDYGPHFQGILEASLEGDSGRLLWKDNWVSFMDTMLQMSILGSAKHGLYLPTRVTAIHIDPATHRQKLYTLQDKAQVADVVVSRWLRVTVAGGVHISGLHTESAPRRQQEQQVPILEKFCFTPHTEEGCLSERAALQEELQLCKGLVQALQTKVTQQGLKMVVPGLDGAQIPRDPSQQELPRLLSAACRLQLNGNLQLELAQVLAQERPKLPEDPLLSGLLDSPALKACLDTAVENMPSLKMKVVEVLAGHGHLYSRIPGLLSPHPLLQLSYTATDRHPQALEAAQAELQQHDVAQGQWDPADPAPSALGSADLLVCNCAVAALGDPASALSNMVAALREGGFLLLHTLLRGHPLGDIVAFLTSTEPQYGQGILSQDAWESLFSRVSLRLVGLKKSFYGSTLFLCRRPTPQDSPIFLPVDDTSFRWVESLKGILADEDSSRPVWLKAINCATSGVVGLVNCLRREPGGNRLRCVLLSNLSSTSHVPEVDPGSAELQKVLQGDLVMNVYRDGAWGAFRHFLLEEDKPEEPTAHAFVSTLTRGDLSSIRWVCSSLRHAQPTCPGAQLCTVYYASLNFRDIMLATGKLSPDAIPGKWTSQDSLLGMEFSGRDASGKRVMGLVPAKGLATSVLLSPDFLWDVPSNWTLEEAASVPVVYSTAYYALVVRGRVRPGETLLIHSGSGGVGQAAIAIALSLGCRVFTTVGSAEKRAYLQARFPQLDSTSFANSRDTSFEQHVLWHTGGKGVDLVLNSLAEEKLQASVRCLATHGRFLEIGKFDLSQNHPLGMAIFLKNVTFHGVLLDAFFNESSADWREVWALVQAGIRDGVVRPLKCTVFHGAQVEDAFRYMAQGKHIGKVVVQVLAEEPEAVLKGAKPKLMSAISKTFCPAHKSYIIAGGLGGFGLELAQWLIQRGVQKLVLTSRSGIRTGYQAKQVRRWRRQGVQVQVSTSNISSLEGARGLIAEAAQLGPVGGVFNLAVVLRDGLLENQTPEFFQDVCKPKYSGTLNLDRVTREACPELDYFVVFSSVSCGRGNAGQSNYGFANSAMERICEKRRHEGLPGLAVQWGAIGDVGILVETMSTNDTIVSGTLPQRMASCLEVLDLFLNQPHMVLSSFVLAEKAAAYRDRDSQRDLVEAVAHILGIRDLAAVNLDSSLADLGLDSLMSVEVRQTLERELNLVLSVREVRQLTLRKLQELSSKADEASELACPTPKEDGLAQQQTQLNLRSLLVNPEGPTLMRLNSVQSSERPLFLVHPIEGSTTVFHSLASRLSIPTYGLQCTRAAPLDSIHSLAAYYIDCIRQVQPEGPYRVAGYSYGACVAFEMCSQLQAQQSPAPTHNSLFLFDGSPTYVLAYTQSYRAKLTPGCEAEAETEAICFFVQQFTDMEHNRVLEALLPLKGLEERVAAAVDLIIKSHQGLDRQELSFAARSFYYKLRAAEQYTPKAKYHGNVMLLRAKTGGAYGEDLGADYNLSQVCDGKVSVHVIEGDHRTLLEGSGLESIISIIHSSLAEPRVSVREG
T2 sequence (P63165 whole entry): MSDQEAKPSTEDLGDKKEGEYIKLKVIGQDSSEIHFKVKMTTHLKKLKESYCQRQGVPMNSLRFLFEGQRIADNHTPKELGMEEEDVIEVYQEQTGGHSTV
T4 sequence (P32842 whole entry): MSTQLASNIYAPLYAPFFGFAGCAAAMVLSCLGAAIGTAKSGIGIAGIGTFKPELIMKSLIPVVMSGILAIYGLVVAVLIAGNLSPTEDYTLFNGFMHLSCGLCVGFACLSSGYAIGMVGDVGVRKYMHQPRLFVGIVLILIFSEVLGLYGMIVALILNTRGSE
Mu-type opioid receptor, sequence (P35372 whole entry): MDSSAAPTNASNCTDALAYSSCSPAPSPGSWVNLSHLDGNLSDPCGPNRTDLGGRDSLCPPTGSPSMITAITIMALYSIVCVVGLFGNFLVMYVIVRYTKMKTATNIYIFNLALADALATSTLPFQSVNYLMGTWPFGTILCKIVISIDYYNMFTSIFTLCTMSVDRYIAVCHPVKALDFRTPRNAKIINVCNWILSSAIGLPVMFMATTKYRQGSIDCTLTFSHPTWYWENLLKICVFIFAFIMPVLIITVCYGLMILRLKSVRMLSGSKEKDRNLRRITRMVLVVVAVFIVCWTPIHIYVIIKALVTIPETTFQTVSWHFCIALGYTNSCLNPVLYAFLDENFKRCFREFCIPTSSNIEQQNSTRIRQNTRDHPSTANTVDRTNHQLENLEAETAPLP
Beta-2 adrenergic receptor, sequence (P07550 whole entry): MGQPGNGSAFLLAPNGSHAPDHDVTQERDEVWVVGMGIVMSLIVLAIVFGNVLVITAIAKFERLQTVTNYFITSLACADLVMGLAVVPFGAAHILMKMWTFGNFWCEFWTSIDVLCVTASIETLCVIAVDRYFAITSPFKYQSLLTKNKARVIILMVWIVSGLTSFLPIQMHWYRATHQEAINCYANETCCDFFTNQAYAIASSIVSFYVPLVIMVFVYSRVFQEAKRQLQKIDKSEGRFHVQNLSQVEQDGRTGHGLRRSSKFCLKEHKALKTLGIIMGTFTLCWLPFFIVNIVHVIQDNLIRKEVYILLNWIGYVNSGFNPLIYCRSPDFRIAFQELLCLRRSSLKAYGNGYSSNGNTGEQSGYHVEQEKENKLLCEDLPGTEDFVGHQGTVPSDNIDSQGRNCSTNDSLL
Mitochondrial peptide methionine sulfoxide reductase, sequence (P54149 whole entry): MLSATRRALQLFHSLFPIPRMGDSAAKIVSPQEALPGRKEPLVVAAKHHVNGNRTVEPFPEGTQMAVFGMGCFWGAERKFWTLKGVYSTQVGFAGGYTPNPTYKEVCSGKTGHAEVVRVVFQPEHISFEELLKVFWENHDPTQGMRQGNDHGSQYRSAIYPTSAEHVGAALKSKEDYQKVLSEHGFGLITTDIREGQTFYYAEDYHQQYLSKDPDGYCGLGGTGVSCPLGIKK
DNA dC->dU-editing enzyme APOBEC-3A, sequence (P31941 whole entry): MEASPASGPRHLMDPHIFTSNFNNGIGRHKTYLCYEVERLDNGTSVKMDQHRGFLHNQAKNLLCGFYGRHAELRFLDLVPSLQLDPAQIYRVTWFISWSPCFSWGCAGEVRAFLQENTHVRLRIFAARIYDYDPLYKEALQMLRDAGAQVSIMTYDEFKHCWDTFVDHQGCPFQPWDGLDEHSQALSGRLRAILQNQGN

C=C(C)C(=O)Nc1cccc(C2=NOC3(C2)C[C@@H](C(N)=O)N(C(=O)CC(c2ccccc2)c2ccccc2)C3)c1 (some centres undefined)
inactive: IC50 [1] > 100 µM | IC50 [5] > 66.6 µM
active: IC50 [2] 15.3 µM | EC50 [3] 1.94 µM | IC50 [4] 6.38 µM | IC50 [6] 5.4 µM | CC50 [7] > 40 µM

CCOC(=O)NN=C1c2ccccc2-c2nc3nonc3nc21
inconclusive: EC50 (BJ [14]) 587 nM | EC50 (BJ [17]) 1.35 µM
active: EC50 [8] 1.71 µM | EC50 [9] 234 nM | EC50 (BJ [10]) 2.33 µM | EC50 [11] 593 nM | EC50 [12] 3.64 µM | EC50 [13] 131 nM | EC50 [15] 83 nM | IC50 [16] 223 nM | EC50 [18] 2.39 µM | IC50 [19] 3.2 µM | AC50 [20] 1.26 µM | EC50 (BJ [21]) 1.86 µM | EC50 [22] 27.1 µM | EC50 [23] 2.37 µM | IC50 (Fatty acid synthase [24]) 1.67 µM | IC50 (Fatty acid synthase [26]) 859 nM | AC50 [27] 4.41 µM | AC50 [28] 1.7 µM | AC50 [29] 2.96 µM | AC50 [30] 3.56 µM | AC50 [31] 3.36 µM
inactive: IC50 [25] 155 µM

Cc1cccc(NC(=O)c2ccc3c(c2)OCCO3)n1
active: AC50 [32] 10.2 µM | AC50 (HeLa) 94.1 µM

Cc1ccccc1/C=C/c1nc2ccccc2c(=O)n1Cc1ccccc1
inactive: IC50 (Hexokinase-1) > 80 µM | IC50 (Hexokinase HKDC1) > 80 µM

CC(=O)N1CCc2cc(C(=O)CN3CCN(c4cccc(Cl)c4)CC3)ccc21
active: EC50 [33] 47.2 nM | EC50 [34] 133 nM
inactive: EC50 (Mu-type opioid receptor) 92.5 µM

Cc1cc(NC(=O)c2cc(-c3ccccc3)on2)n(-c2ccccc2)n1
active: AC50 (DNA topoisomerase) 4.16 µM
